From US20140031296A1, “NEW SYNTHETIC PEPTIDES AND THEIR USE” (PERGAMUM AB, priority 2011, published 2014)

Experiments:
[1] = system: TNF-α production in LPS stimulated THP-1 cells; assay: Inhibition of TNF-α production in LPS stimulated THP-1 cells (ELISA); format: cell-based, human; details: mean relative secretion, basal = 0%; for TNF-α at 40 μM peptide: LPS-stimulated level without peptide = 100%; for TNF-α at 4 μM peptide / TNF-α at 10 μM peptide: stimulated = 100%
Description: (§1) After 6 hours of incubation at +37° C., 5% CO2 and in a humid atmosphere, the cell supernatants were collected, centrifuged and kept frozen in −20° C. until analyzed for TNF-α content by ELISA (R&D Systems, Minneapolis, Minn., USA). The results are presented as mean relative secretion (%), with stimulated TNF-α level without peptide added set to 100% and basal secretion set to 0% (Table 2).
as §1, with “incubation,” for “incubation at +37° C., 5% CO2 and in a humid atmosphere,”, “centrifuged,” for “centrifuged”, “5).” for “2).”

S. aureus (CCUG 1800) = assay: Minimal microbicidal concentration (MMC99) assay, S. aureus; format: cell-based; details: 2 hours; for MMC99 μM in 50% SWF: 50% heat inactivated simulated wound fluid
Description: Antimicrobial Activity was Measured as Bactericidal Effect on S. aureus Using Minimal Microbicidal Concentration, MMC99, Assay)
S. aureus (#1800; CCUG, Gothenburg, Sweden) cultured on blood-agar plates [Columbia agar (Oxoid, Basingstoke, UK) supplemented with 5% defibrinated horse blood (National Veterinary Institute (SVA), Uppsala, Sweden)] were transferred to brain heart infusion broth (3.7% BHI; Difco, BD Diagnostics, Franklin Lakes, N.J., USA) and incubated in a shaker at 250 rpm+37° C. over night. The culture was thereafter be diluted 1:10 in fresh BHI broth and incubated for additional two hours to reach log-phase growth. The bacteria were pelleted and suspended in 1% BHI medium (BHI broth diluted 100 times in ultra-pure water) to a concentration of 10^7 bacteria/ml as estimated by measuring optical density at 600 nm. Peptides were serially diluted by two-fold steps from 160 μM to 1.25 μM in 1% BHI medium. The peptides (100 μl) were thereafter incubated with bacteria (5 μl á 10^7 bact./ml) for 2 hours at +37° C. Drops (5 μl) of the suspension were placed on blood agar plates. The blood agar plates were incubated over night at +37° C. The MMC99 values, i.e. the lowest peptide concentration needed to achieve a 99% reduction of viable bacteria, were recorded (Table 3). The concentration of the bacterial suspension used in the assay was confirmed by viable counts on blood agar plates.
S. aureus (#1800; CCUG, Gothenburg, Sweden) cultured on blood-agar plates [Columbia agar (Oxoid, Basingstoke, UK) supplemented with 5% defibrinated horse blood (National Veterinary Institute (SVA), Uppsala, Sweden)] were transferred to brain heart infusion broth (3.7% BHI; Difco, BD Diagnostics, Franklin Lakes, N.J., USA) and incubated in a shaker at 250 rpm+37° C. over night. The culture was thereafter be diluted 1:10 in fresh BHI broth and incubated for additional two hours to reach log-phase growth. The bacteria were pelleted and suspended in 1% BHI medium (BHI broth diluted 100 times in ultra-pure water) to a final concentration of 10^7 bacteria/ml as estimated by measuring optical density at 600 nm.
Peptides were serially diluted by two-fold steps from 400 μM to 0.78 μM in either 1% BHI medium or in 50% heat inactivated simulated wound fluid [SWF, containing 1 part 0.1% peptone (Oxoid, Basingstoke, UK) in saline and 1 part fetal bovine serum, diluted 2 times in ultra-pure water].
The peptides (100 μl) were thereafter incubated with bacteria (5 μl a 10^7 bact./ml) for 2 hours at +37° C. Drops (5 μl) of the suspension were placed on blood agar plates. The blood agar plates were incubated over night at +37° C. The MMC99 values, i.e. the lowest peptide concentration needed to achieve a 99% reduction of viable bacteria were recorded (Table 6). The concentration of the bacterial suspension used in the assay was confirmed by viable counts on blood agar plates.
The antimicrobial effects of the peptides 232 (SEQ ID NO: 78), and 220 (SEQ ID NO:67) were analysed by MMC99 (minimal microbicidal concentration) assay against S. aureus (CCUG 1800), MRSA (CCUG 41879), P. aeruginosa (ATCC 15442), E. coli (CCUG 31246), S. pyogenes (CCUG 4207), P. acnes (CCUG 1794T), S. epidermidis (ATCC12228), K. pneumoniae (ATCC 13883), A. baumannii (ATCC 19606), and C. albicans (ATCC 64549). The peptides were purchased from Biopeptide Company (San Diego, Calif., USA) and Bachem AG (Bubendorf, Switzerland) and results are presented in Table 8A and 8B respectively.
Peptides were serially diluted in two different assay medium, 1% BHI medium (brain-heart infusion medium) or 50% heat inactivated simulated wound fluid (SWF), and thereafter incubated with the microorganisms for 2 hours. Drops of the suspension were placed on blood agar plates. The MMC99 values, i.e. the lowest peptide concentration needed to achieve a 99% reduction of viable microorganisms, were recorded. As presented in Table 8, all the peptides have the ability to kill microorganisms frequently appearing in infections. […]

[2] = screen 1, 99% reduction of viable bacteria

Sequence	TNF-α at 40 μM peptide ([1]; screen 1) [%]	MMC99 μM in 1% BHI medium (S. aureus (CCUG 1800); [2]) [µM]	TNF-α at 40 μM peptide ([1]; screen 2) [%]	other results
CFKWKRKMRKVR [Peptide 147]	111	10	–	–
CFLWRRLMRKLR [Peptide 228]	–	–	53.6	TNF-α at 4 μM peptide ([1]; screen 2): 106.6%; TNF-α at 10 μM peptide ([1]; screen 2): 95.4%; MMC99 μM in 1% BHI medium (S. aureus (CCUG 1800); screen 2): 12.5 µM; MMC99 μM in 50% SWF (S. aureus (CCUG 1800); screen 2): 50 µM
CFLWRRLMRKV [Peptide 237]	–	–	89.2	–
CFLWRRNMRKVR [Peptide 227]	–	–	111.0	–
CFLWRRSMRRLR [Peptide 236]	–	–	94.4	–
CFQWKRAMRKVR [Peptide 123]	156	20	–	–
CFQWKRAMRKVR [Peptide 144]	140	10	–	–
CFQWQKRMKRVK [Peptide 148]	132	20	–	–
CFQWQRKMRKVR [Peptide 143]	153	20	–	–
CFQWQRNMRKVR [Peptide 149]	109	13.3	–	–
CLNFKRGVRKIR [Peptide 141]	109	20	–	–
CRLWRRNMRKVR [Peptide 229]	–	–	108.5	–
CRLWRRRMRKVW [Peptide 233]	–	–	90.7	–
CWLWRRAMRKVW [Peptide 230]	–	–	80.4	TNF-α at 4 μM peptide ([1]; screen 2): 119.2%; TNF-α at 10 μM peptide ([1]; screen 2): 135.6%; MMC99 μM in 1% BHI medium (S. aureus (CCUG 1800); screen 2): 25 µM; MMC99 μM in 50% SWF (S. aureus (CCUG 1800); screen 2): 100 µM
EATKCFQWQRNMRKVR [Peptide 158]	91	–	–	–
FQWKPAIRKVR [Peptide 140]	117	>160	–	–
FQWKRAMRKVR [Peptide 122]	–	20	–	–
FQWQPRIRKVR [Peptide 138]	172	>160	–	–
FQWQRNIRKIR [Peptide 134]	109	40	–	–
FQWQRNIRKVR [Peptide 136]	96	>160	–	–

Sequence	TNF-α at 40 μM peptide ([1]; screen 1) [%]	MMC99 μM in 1% BHI medium (S. aureus (CCUG 1800); [2]) [µM]	TNF-α at 40 μM peptide ([1]; screen 2) [%]	other results
FQWQRNLRKLR [Peptide 135]	103	20	–	–
FQWQRNMRKVR [Peptide 133]	135	>160	–	–
FQWQRPIRKVR [Peptide 137]	137	>160	–	–
FQWQRRIRKVR [Peptide 124]	128	20	–	–
FQWRPGIRKLR [Peptide 139]	148	45	–	–
FQWRRAIRKVR [Peptide 125]	150	20	–	–
FWWQRKMRKVR [Peptide 131]	87	5	–	–
GRRRRSVQWCA [Peptide 223]	–	–	104.4	MMC99 μM in 1% BHI medium (S. aureus (CCUG 1800); screen 2): 25 µM
GRRRRSVQWCA [Peptide 255]	–	–	100.7	–
KKLWRRWWRKVL [Peptide 244]	–	–	10.7	TNF-α at 4 μM peptide ([1]; screen 2): 107.7%; TNF-α at 10 μM peptide ([1]; screen 2): 116.7%; MMC99 μM in 1% BHI medium (S. aureus (CCUG 1800); screen 2): 12.5 µM; MMC99 μM in 50% SWF (S. aureus (CCUG 1800); screen 2): 50 µM
KRQSLARTFKQWARNLRKVL [Peptide 215]	–	–	1.3	TNF-α at 4 μM peptide ([1]; screen 2): 86.6%; TNF-α at 10 μM peptide ([1]; screen 2): 69.6%; MMC99 μM in 1% BHI medium (S. aureus (CCUG 1800); screen 2): 6.25 µM; MMC99 μM in 50% SWF (S. aureus (CCUG 1800); screen 2): 25 µM
LRLWRRLMRKVW [Peptide 231]	–	–	49.8	TNF-α at 4 μM peptide ([1]; screen 2): 102.6%; TNF-α at 10 μM peptide ([1]; screen 2): 89.1%; MMC99 μM in 1% BHI medium (S. aureus (CCUG 1800); screen 2): 12.5 µM; MMC99 μM in 50% SWF (S. aureus (CCUG 1800); screen 2): 50 µM
LRLWRRSMRKVW [Peptide 235]	–	–	89.3	–
LRTWRRLTRKVW [Peptide 234]	–	–	102.0	–
LVKRLNRLWQFRKTAESQ [Peptide 216]	–	–	121.9	–
LVWIKRHIKKFK [Peptide 246]	–	–	125.5	–
NEADKCFQWQRNMRKVR [Peptide 109]	47	160	–	–
NQPTATKCFQWQRNMRKVR [Peptide 102]	108	>160	–	–
NSLFEKLAQWLRQLRKVR [Peptide 222]	–	–	32.9	TNF-α at 4 μM peptide ([1]; screen 2): 89.2%; TNF-α at 10 μM peptide ([1]; screen 2): 65.9%; MMC99 μM in 1% BHI medium (S. aureus (CCUG 1800); screen 2): 12.5 µM; MMC99 μM in 50% SWF (S. aureus (CCUG 1800); screen 2): 100 µM
PEATKCFQWQRNMRKVR [Peptide 108]	127	>160	–	–

Sequence	TNF-α at 40 μM peptide ([1]; screen 1) [%]	MMC99 μM in 1% BHI medium (S. aureus (CCUG 1800); [2]) [µM]	TNF-α at 40 μM peptide ([1]; screen 2) [%]	other results
QESARKQFRWLRNLTKVL [Peptide 202]	–	–	90.3	–
QKRATKRFQWLRNLRKVL [Peptide 205]	–	–	28.3	TNF-α at 4 μM peptide ([1]; screen 2): 91.5%; TNF-α at 10 μM peptide ([1]; screen 2): 89.5%; MMC99 μM in 1% BHI medium (S. aureus (CCUG 1800); screen 2): 12.5 µM; MMC99 μM in 50% SWF (S. aureus (CCUG 1800); screen 2): 50 µM
QPEATKCFPWQRNMRKVR [Peptide 118]	113	>160	–	–
QREARKFRQWLRNMTKVR [Peptide 203]	–	–	98.1	–
QREARKRFQWLRNMTKVR [Peptide 201]	–	–	128.6	–
QSAARTFKQWARNLRKTL [Peptide 210]	–	–	101.0	–
QSAKTACFLWRRNMRKVR [Peptide 226]	–	–	108.7	–
QSEATKCFLWRRNMRKVR [Peptide 225]	–	–	111.6	–
QSEATKRFQWLRNLRKVL [Peptide 217]	–	–	103.0	–
QSEYTKRYQWLRNLRKVL [Peptide 204]	–	–	96.9	–
QSLAEKLFWQLRNLRKVR [Peptide 221]	–	–	94.4	–
QSRATKRFQWHRNARKVL [Peptide 207]	–	–	160.9	–
QSRATKRFQWLRNHRKVL [Peptide 208]	–	–	130.2	–
TKCFLWRRNMRKVRG [Peptide 242]	–	–	116.8	–
VSQSEATKRFQWLRNLRKVL [Peptide 214]	–	–	88.8	–
VWIVKKQVKRIK [Peptide 245]	–	–	146.3	–
WFKCFQWQRNMRKVR [Peptide 243]	–	–	113.1	–
WRRWLRKSVKRL [Peptide 247]	–	–	88.2	–
